Reference: patent US4620014A, “2-furylbutyrolactones and methods for using same” (priority 1983, dated 1986)
“And” between values parts separate entries of the source, which are not always exact repeats. Equal entries are not always repeated. Where two headings read alike, the source gives them in different places.

Experiments:
[1] = test system: antibody response to keyhole limpet hemocyanin (KLH)
Source text: The effect of the compounds of this invention on the immune response to specific antigens involves immunization of mice with specific anitgens such as bovine serum albumin (BSA) or keyhole limpet hemocyanin (KLH). Following immunization, it is possible to assess the cell-mediated or humoral (antibody) immune response to these antigens by various methods:
(2) Antibody response to soluble antigens such as BSA or KLH can be quantitated using a micro-ELISA solid phase heterogeneous immunoassay. The assay can be designed to quantitate class specific immunoglobulins (i.e., IgG or IgM).
The cut-off for the titer was the highest dilution of mouse serum yielding an O.D.≤0.1 when read on the MR-600 Dynatech micro-ELISA reader.
Mice of the C57BL/6 strain are given i.p. injections of either 50, 100, 200 or 400 mg/kg of Cpd. 1 or buffer for ten days (days 1-10). An antigen, keyhole limpet hemocyanin (KLH), is administered intraperitoneally with Freund's Complete Adjuvant (FCA) on days 1, 7, and 13. Blood samples are taken for assay of the antibody response on days 0, 5, 12, and 17. Spleens are removed, lymphocytes isolated and a lymphocyte stimulation assay with PHA, Con-A or KLH antigen as the mitogens is performed on day 17 of the experiment.

L5178Y tumor cells = conditions: 100 mg/kg i.p., 7 days
Experimental: (§1) Ten days later the resultant tumor nodule, about 1 cm in size, is surgically excised. If the excision was successful, no subcutaneous tumors develop at the site of implantation. […] These mice are considered to be in the tumor dormant state.
(§2) The effect of Cpd. 1 on the emergence from the L5178Y tumor dormant state is studied by treating forty DBA/2 mice with Cpd. 1 after the mice have undergone the TDS inducing procedure. […] 1 at 100 mg/kg and the remaining twenty mice receive buffer only. A partial peritoneal lavage is performed twenty-five days after the last dose of Cpd. 1 and the peritoneal exudate fluid is plated out for determination of tumor cell numbers (tumor cell quantitative assay). Survival time is recorded out to 90 days after challenge with the viable L5178Y tumor cells. The percent mortality is calculated for each group.
(§3) The effect of Cpd. 1 on the emergence from the L5178Y tumor dormant state was studied by treating forty DBA/2 mice with Cpd. 1 after the mice had undergone the TDS inducing procedure. Two days after the mice were challenged with i.p. administration of 50,000 viable L5178Y tumor cells, twenty of these mice received seven consecutive days of i.p. treatment with Cpd. 1 at 100 mg/kg and the remaining twenty mice received buffer only. A partial peritoneal lavage was performed twenty-five days after the last dose of Cpd. 1 and the peritoneal exudate fluid was plated out for determination of tumor cell numbers (tumor cell quantitative assay). Survival time was recorded out to 114 days after challenge with the viable L5178Y tumor cells. The percent mortality was calculated for each group.

L5178Y tumor = conditions: 100 mg/kg i.p., 7 days
Experimental: as §1, §2, §3

For `Cc1ccc(C2(O)C(=O)OC3C(O)COC32O)o1.Cc1ccc(C2(O)C(=O)OC3C(O)COC32O)o1.O=C1CCC(=O)O1` (stereo not shown) [Cpd. 1], the “Micro-ELISA Titer” value ([1]; 50 mg/kg i.p., day 5) was “N/R”, the “Micro-ELISA Titer” value ([1]; 50 mg/kg i.p., prebleed) was “N/R” and the “Micro-ELISA Titer” value ([1]; 100 mg/kg i.p., day 5) was “N/R”. For the same molecule, the “Micro-ELISA Titer” value ([1]; 100 mg/kg i.p., prebleed) was “N/R”, the “Micro-ELISA Titer” value ([1]; 200 mg/kg i.p., day 5) was “N/R” and the “Micro-ELISA Titer” value ([1]; 200 mg/kg i.p., prebleed) was “N/R”. The “Micro-ELISA Titer” value ([1]; 400 mg/kg i.p., day 5) was “N/R”, the “Micro-ELISA Titer” value ([1]; 400 mg/kg i.p., prebleed) was “N/R” and the “stimulation of antibody response to KLH over control” value ([1]; 200 and 400 mg/kg, day 12) was “significant stimulation (four-fold increases)”. The “increase of antibody response to KLH over untreated antigen-sensitized controls” value ([1]; 200 and 400 mg/kg, day 17) was “eight-fold increase”, the “numbers of tumor cells recovered versus controls” value (L5178Y tumor cells) was “significant reduction in the numbers of tumor cells” and the “Frequency of mice, Treated Group” value (L5178Y tumor cells; 1,000 to 100,000 tumor cells) was 7 and 4. For the same molecule, the “% of Total, Treated Group” value (L5178Y tumor cells; >100,000 tumor cells) was 6% and 4.3%, the “Frequency of mice, Treated Group” value (L5178Y tumor cells; >100,000 tumor cells) was 1 and the “survival versus untreated controls” value (L5178Y tumor) was “significantly greater survival”. For the same molecule, the “% Survival” value (L5178Y tumor; 90 days post-challenge) was 55.6%, the “No. Survivors” value (L5178Y tumor; 90 days post-challenge) was 10 and the “% Survival” value (L5178Y tumor; 114 days post-challenge) was 82.6%. For the same molecule, the “No. Survivors” value (L5178Y tumor; 114 days post-challenge) was 19.
